Experimental data: ChEMBL document CHEMBL6127095, “Isoxazole compounds: Unveiling the synthetic strategy, in-silico SAR & toxicity studies and future perspective as PARP inhibitor in cancer therapy” (Eur J Med Chem, 2024)
Converted amounts (≈) assume the structure as drawn. Where a name gives a salt, the structure may show the parent alone.

Key:
MDA-MB-231 [1] = experiment: Growth inhibition of human MDA-MB-231 cells; assay type: functional
MDA-MB-231 [2] = experiment: Anticancer activity against human MDA-MB-231 cells assessed as reduction in cell viability measured for 48 hrs by MTT assay; assay type: functional, cell-based; details: MDA-MB-231, 48 h
MCF7 [3] = experiment: Antitumor activity against human MCF7 cells xenografted in BALB/c nude mouse assessed as tumor growth inhibition at 30 mg/kg, iv administered for 15 days; assay type: functional; set-up: scale not given: the % may be the effect or the level left; details: time 15 day
[4] = Toxicity in mouse assessed as lethal dose; details: in vivo
K562 = experiment: Antiproliferative activity against human K562 cells assessed as reduction in cell viability after 72 hrs by MTT assay; assay type: functional, cell-based; details: K562, 72 h
[5] = target: Epidermal growth factor receptor (Homo sapiens, UniProt P00533); experiment: Inhibition of EGFR (unknown origin) using TK as substrate incubated for 30 mins by HTRF assay
Sequence of Epidermal growth factor receptor (P00533 whole entry): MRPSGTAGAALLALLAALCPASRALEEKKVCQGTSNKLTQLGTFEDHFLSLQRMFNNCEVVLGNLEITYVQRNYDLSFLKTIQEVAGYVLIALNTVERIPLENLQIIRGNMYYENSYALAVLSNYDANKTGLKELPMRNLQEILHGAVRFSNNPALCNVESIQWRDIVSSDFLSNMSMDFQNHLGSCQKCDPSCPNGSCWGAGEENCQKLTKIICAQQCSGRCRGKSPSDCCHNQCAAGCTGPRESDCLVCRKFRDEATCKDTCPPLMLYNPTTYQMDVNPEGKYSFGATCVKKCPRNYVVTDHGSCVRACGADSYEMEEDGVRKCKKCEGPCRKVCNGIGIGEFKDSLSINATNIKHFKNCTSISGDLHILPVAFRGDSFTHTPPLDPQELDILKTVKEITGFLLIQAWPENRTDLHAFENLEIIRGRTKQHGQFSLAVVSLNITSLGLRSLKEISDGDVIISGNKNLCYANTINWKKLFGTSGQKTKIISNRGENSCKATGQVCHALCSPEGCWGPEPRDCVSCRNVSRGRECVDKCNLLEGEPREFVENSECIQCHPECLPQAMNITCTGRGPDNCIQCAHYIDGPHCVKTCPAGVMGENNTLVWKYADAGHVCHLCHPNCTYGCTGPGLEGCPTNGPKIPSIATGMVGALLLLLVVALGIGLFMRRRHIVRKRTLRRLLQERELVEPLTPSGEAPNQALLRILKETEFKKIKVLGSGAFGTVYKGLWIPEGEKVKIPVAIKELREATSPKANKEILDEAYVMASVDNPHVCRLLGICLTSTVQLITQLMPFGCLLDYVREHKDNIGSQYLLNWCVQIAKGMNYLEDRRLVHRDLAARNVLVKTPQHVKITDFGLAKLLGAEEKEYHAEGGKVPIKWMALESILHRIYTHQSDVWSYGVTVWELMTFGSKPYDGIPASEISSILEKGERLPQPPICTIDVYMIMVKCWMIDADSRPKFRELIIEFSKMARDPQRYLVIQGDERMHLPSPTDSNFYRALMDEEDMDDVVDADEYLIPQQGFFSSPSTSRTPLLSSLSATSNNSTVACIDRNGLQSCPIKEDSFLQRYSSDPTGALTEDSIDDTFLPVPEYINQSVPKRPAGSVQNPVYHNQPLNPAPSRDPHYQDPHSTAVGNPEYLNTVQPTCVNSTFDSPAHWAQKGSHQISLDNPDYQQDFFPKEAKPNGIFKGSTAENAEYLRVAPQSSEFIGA

MCF7 [6] = experiment: Antiproliferative activity against human MCF7 cells assessed as reduction in cell viability incubated for 48 hrs by MTT assay; assay type: functional, cell-based; details: MCF7, 48 h
PC-3 [7] = experiment: Antiproliferative activity against human PC-3 cells assessed as reduction in cell viability incubated for 24 hrs by MTT assay; assay type: functional, cell-based; details: PC-3, 24 h
DU-145 = experiment: Antiproliferative activity against human DU-145 cells assessed as reduction in cell viability by MTT assay; assay type: functional, cell-based
HepG2 = experiment: Antiproliferative activity against human HepG2 cells assessed as reduction in cell viability after 24 hrs by MTT assay; assay type: functional, cell-based; details: HepG2, 24 h
4T1 = experiment: Cytotoxicity against mouse 4T1 cells assessed as inhibition of cell proliferation incubated for 72 hrs by MTT assay; assay type: functional, cell-based; details: 4T1, 72 h
MCF7 [8] = experiment: Anticancer activity against human MCF7 cells assessed as inhibition of cell growth incubated for 24 hrs by MTT assay; assay type: functional, cell-based; details: MCF7, 24 h
PC-3 [9] = experiment: Anticancer activity against human PC-3 cells assessed as inhibition of cell growth incubated for 24 hrs by MTT assay; assay type: functional, cell-based; details: PC-3, 24 h
Huh-7 = experiment: Antiproliferative activity against human Huh-7 cells assessed as reduction in cell growth; assay type: functional, cell-based
Heat shock protein HSP90 = Heat shock protein HSP90 (Homo sapiens, UniProt P07900+P08238); experiment: Inhibition of HSP90 (unknown origin) ATPase activity; assay type: protein assay
[10] = target: Poly [ADP-ribose] polymerase 1 (Homo sapiens, UniProt P09874); experiment: Inhibition of PARP-1 (unknown origin)
Sequence of Poly [ADP-ribose] polymerase 1 (P09874 whole entry): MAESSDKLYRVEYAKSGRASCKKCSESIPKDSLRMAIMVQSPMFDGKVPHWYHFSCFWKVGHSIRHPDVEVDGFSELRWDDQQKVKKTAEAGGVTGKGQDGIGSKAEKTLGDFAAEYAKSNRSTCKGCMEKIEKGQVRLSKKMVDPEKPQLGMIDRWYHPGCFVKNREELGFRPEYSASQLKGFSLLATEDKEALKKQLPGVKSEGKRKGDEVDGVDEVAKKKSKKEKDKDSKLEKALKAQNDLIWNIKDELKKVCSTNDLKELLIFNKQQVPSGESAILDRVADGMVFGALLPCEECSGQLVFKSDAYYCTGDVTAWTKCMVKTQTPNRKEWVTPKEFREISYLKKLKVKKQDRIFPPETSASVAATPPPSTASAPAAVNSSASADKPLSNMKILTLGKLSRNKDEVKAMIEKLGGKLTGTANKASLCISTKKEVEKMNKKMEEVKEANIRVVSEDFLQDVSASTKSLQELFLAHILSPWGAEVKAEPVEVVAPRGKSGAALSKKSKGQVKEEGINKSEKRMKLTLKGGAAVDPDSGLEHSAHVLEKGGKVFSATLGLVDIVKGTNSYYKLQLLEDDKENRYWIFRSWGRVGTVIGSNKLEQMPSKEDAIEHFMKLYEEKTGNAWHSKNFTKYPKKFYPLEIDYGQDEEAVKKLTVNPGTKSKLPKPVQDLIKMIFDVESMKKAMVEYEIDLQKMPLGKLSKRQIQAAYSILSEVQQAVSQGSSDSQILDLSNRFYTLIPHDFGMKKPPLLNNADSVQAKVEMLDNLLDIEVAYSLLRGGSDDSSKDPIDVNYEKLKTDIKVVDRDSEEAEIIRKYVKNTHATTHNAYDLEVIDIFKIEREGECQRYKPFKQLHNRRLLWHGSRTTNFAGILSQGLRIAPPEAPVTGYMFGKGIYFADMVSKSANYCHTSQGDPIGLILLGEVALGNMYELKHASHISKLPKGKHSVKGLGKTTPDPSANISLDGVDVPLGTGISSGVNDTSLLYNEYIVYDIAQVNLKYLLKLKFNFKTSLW

MCF7 [11] = experiment: Growth inhibition of human MCF7 cells incubated fro 48 hrs by SRB assay; assay type: functional
PC-3 [12] = experiment: Growth inhibition of human PC-3 cells measured for 48 hrs by SRB assay; assay type: functional

With CCc1cc(-c2oncc2-c2ccc(OC)cc2)c(O)cc1OC the GI50 (MDA-MB-231 [1]) was 25000 nM and the IC50 (MDA-MB-231 [2]) was 100 nM.

Compound CC(=O)c1c(O)c(C)c(O)c2c1OC1=Cc3onc(C)c3C(=O)[C@@]12C has an Activity (MCF7 [3]) of 80%.

For Cc1cc(C[C@@H]2C[C@H]3C(=O)N(C)C4(C[C@H](C)CC[C@H]4C(C)C)N3O2)c(O)c(-n2nc3ccccc3n2)c1 (stereo partly drawn), the LD50 [4] was 1000 mg/kg.

Work on Cc1noc(C)c1-c1cc(Cc2n[nH]c(=O)c3ccccc23)cc(NC(=O)c2ccccc2C(F)(F)F)c1 yielded an LD50 [4] of 500 mg/kg.

Cc1onc([C@@H]2CN(C)C3(C(=O)c4ccccc4C3=O)[C@@]23C(=O)N(C)c2cc(Br)ccc23)c1[N+](=O)[O-] gave an IC50 (K562) of 20300 nM.

COc1c(Cl)cc(-c2noc(-c3cn(Cc4cc(-c5cc(Cl)cc(Cl)c5)no4)c4ccccc34)n2)cc1Cl showed an IC50 [5] of 200 nM and an IC50 (MCF7 [6]) of 2160 nM.

Compound COc1cc(-c2nnc(-c3cncc(-c4cc(-c5nccs5)on4)c3)o2)cc(OC)c1OC has an IC50 (PC-3 [7]) of 10 nM.

Work on COc1ccc(/C=C/C(=O)c2ccno2)c(F)c1OC yielded an IC50 (DU-145) of 5 µg/mL (≈ 18 µM).

With Cc1ccccc1COc1ccc(-c2noc(C)c2-c2ccc(Cl)cc2)cc1 the IC50 (HepG2) was 770 nM.

Work on COc1ccc(-c2noc(-c3cccs3)c2C(F)(F)F)cc1OC yielded an IC50 (4T1) of 2630 nM, an IC50 (MCF7 [8]) of 2630 nM and an IC50 (PC-3 [9]) of 2630 nM.

COc1ccc(-c2nnc(-c3cncc(-c4cc(-c5nccs5)on4)c3)o2)cc1 showed an IC50 (PC-3 [7]) of 10 nM.

COc1cc(NC(=O)c2cc(-c3c[nH]c4ccccc34)no2)cc(OC)c1OC gave an IC50 (Huh-7) of 700 nM.

COc1ccc(-c2noc(NC(=O)c3ccc(F)c(F)c3)c2C#N)c(OC)c1 gave an IC50 (Heat shock protein HSP90) of 14000 nM.

In the case of c1csc(-c2cc(-c3cncc(-c4nnc(-c5nccs5)o4)c3)no2)n1, the IC50 (PC-3 [7]) is reported as 10 nM.

Compound c1cc(-c2nnc(-c3cncc(-c4cc(-c5nccs5)on4)c3)o2)ccn1 has an IC50 (PC-3 [7]) of 10 nM.

With CCCCCCCCCCc1cc(CCC(N)(CO)CO)on1 the IC50 [10] was 7500 nM.

COc1cccc2c1C(=O)c1c(O)c3c(c(O)c1C2=O)C[C@@](O)(C(=O)CO)C[C@@H]3O[C@H]1C[C@H](N)[C@H](O)[C@H](C)O1 [DOXORUBICIN HYDROCHLORIDE] showed a GI50 (MCF7 [11]) of 1000 nM and a GI50 (PC-3 [12]) of 1000 nM.

In the case of c1cnoc1 [ISOXAZOLE], the IC50 [10] is reported as 10000 nM.
